# Results: US8962630B2, “Pyrrolopyrimidine compounds and their uses” (Novartis AG, priority 2008, dated 2015)
# Read-outs that look alike come from different tables or passages of the source.
# Key:
# Assay type in all cases: biochemical
# CDK4/cyclin D1 = CDK4/cyclin D1 (Homo sapiens (Human), UniProt P11802); assay: CDK4/Cyclin D1 enzymatic activity assay (Lance TR-FRET)
# Description: A 384-well microtiter Lance TR-FRET (time-resolved-fluorescence energy transfer) endpoint assay was used for CDK4/cyclin D1 kinase activity measurements. The same assay was used for IC50 determination of small molecule inhibitors. In general, the kinase reactions were carried out in 30 μL volumes in the reaction solution containing the following: 2 uL compound (in […]), 18 uL CDK4/cyclin D1 in Assay Buffer (50 mM HEPES, pH 7.5, 5 mM MgCl2, 2 mM MnCl2, 1 mM DTT, 0.05% BSA, 0.02% Tween-20), 10 uL of the mixture of pRb152 and ATP. The final reaction mixture contains compound (inhibitor) with the concentration varying from 0.005-10 μM, 2% DMSO, 0.3 nM CDK4/cyclin D1, 175 nM pRb152, and 3 μM ATP (Amersham Pharmacia, Cat. No. 27-2056-01). All reactions were run at room temperature in 384-well white flat-bottom OptiPlates (Perkin Elmer, Cat. No. 6007290) for 60 min then were quenched by the addition of 10 μL of 120 mM EDTA. The signals were captured by the addition of 40 μL of the Detection Solution containing the following: Detection Buffer (50 mM HEPES, pH 7.5, 30 mM EDTA, 0.1% Triton x-100, 0.05% BSA), 70 ng/mL anti-phospho-pRb(S780) (Cell Signaling Technology, Cat. No. 9307S), 1 nM Lance Eu-W1024-Rabbit anti-IgG (Perkin Elmer, Cat. No. AD0082), and 20 nM SureLight™ Allophycocyanin-Streptavidin (Perkin Elmer, Cat. No. CR130-100). The resulted solutions were incubated at room temperature for 2 hours before read on the Evision Multilabel Reader (Perkin Elmer, Envision 2102-0010).
# CDk4/cyclin D1 recombinant protein used in the enzymatic activity assay was prepared by coexpressing pDEST10-CDK4 (N-terminal His6) and pFastBacDual-GST-hCyclinDl viruses in Sf21 cells.
# CDK2/cyclin A = CDK2/cyclin A (Homo sapiens (Human), UniProt P24941); assay: CDK2/Cyclin A enzymatic activity assay (IMAP-FP)
# CDK1/cyclin B = CDK1/cyclin B (Homo sapiens (Human), UniProt P06493); assay: CDK1/Cyclin B enzymatic activity assay (IMAP-FP)
# From the text: A 384-well microtiter IMAP-FPT™ (Molecular Devices Trade Mark Technology) endpoint assay was used for CDK1/cyclin B kinase activity measurements. The same assay was used for IC50 determination of small molecule inhibitors.
# [1] = Table 2, 3 μM ATP, read-out: CDK4
# [2] = Table 2, 20 μM ATP, read-out: CDK1
# CDK1/cyclin B, sequence (P06493 whole entry, species assumed): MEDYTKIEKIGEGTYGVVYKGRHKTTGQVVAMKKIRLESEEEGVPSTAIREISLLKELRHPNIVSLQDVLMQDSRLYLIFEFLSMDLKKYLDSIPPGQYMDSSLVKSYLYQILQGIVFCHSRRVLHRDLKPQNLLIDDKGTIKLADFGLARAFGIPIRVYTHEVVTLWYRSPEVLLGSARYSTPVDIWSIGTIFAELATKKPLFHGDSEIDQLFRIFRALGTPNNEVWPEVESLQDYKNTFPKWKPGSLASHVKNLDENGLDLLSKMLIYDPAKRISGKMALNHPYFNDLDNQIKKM
# CDK1/cyclin B, sequence (P14635 whole entry partner, species assumed): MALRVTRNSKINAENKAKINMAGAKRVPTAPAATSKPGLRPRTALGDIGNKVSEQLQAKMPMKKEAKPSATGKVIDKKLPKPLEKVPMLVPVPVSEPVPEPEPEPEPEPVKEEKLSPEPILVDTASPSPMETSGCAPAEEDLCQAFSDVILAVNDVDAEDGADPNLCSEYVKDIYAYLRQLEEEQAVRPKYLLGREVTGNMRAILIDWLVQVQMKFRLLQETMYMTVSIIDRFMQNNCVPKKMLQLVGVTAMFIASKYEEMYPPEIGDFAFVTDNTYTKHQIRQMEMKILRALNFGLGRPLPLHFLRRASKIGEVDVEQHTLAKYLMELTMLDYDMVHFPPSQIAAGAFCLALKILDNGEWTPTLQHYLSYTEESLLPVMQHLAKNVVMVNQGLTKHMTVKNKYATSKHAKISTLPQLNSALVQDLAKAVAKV
# CDK4/cyclin D1, sequence (P11802 whole entry): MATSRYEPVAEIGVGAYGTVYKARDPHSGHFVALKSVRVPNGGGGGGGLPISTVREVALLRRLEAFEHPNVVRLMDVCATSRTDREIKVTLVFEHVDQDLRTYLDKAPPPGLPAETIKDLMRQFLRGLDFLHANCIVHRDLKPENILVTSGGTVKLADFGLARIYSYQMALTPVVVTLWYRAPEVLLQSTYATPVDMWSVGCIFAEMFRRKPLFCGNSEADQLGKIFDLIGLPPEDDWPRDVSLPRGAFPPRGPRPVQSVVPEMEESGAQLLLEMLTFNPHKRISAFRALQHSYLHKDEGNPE
# CDK4/cyclin D1, sequence (P24385 whole entry partner): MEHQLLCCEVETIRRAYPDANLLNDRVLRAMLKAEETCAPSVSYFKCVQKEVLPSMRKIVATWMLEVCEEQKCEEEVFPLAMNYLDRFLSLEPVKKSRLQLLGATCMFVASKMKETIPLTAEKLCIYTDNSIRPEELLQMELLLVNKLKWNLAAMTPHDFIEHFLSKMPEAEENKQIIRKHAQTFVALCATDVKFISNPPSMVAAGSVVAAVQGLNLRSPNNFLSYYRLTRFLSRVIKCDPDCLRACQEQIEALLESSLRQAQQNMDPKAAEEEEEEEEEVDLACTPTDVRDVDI
Structure (SMILES),IC50 (CDK4/cyclin D1; [1]),"IC50 (CDK2/cyclin A; Table 2, read-out: CDK2)",IC50 (CDK1/cyclin B; [2]),"IC50 (CDK4/cyclin D1; Table 4, read-out: IC50 (μM) CDK4)","IC50 (CDK2/cyclin A; Table 4, read-out: IC50 (μM) CDK2)","IC50 (CDK1/cyclin B; Table 4, read-out: IC50 (μM) CDK1)"
"CN(C)C(=O)c1cc2cnc(Nc3ccc(N4CCN(C(=O)C5CCCCC5)CC4)cn3)nc2n1C1CCCC1 [Example 23, 2-[5-(4-Cyclohexanecarbonyl-piperazin-1-yl)-pyridin-2-ylamino]-7-cyclopentyl-7H-pyrrolo[2,3-d]pyrimidine-6-carboxylic acid dimethylamide]",0.01 to 0.1 µM,> 15 µM,> 15 µM,,,
"CC1CN(c2ccc(Nc3ncc4cc(C(=O)N(C)C)n(C5CCCC5)c4n3)nc2)CC(C)N1 (stereo not drawn) [Example 24, 7-Cyclopentyl-2-[5-(3,5-dimethyl-piperazin-1-yl)-pyridin-2-ylamino]-7H-pyrrolo[2,3-d]pyrimidine-6-carboxylic acid dimethylamide]",0.01 to 0.1 µM,> 15 µM,> 15 µM,,,
"CN(C)C(=O)c1cc2cnc(Nc3ccc(N4CCN(CC(F)(F)F)CC4)cn3)nc2n1C1CCCC1 [Example 25, 7-Cyclopentyl-2-{5-[4-(2,2,2-trifluoro-ethyl)-piperazin-1-yl]-pyridin-2-ylamino}-7H-pyrrolo[2,3-d]pyrimidine-6-carboxylic acid dimethylamide]",0.01 to 0.1 µM,> 15 µM,> 15 µM,,,
"CN(C)C(=O)c1cc2cnc(Nc3ccc(N4CCN(C[C@H](O)CO)CC4)cn3)nc2n1C1CCCC1 [Example 29, 7-Cyclopentyl-2-{5-[4-((S)-2,3-dihydroxy-propyl)-piperazin-1-yl]-pyridin-2-ylamino}-7H-pyrrolo[2,3-d]pyrimidine-6-carboxylic acid dimethylamide]",0.01 to 0.1 µM,> 15 µM,15 µM,,,

# Next, values leading:
IC50 (CDK4/cyclin D1; [1]),"IC50 (CDK2/cyclin A; Table 2, read-out: CDK2)",IC50 (CDK1/cyclin B; [2]),"IC50 (CDK4/cyclin D1; Table 4, read-out: IC50 (μM) CDK4)","IC50 (CDK2/cyclin A; Table 4, read-out: IC50 (μM) CDK2)","IC50 (CDK1/cyclin B; Table 4, read-out: IC50 (μM) CDK1)",Structure (SMILES)
0.01 to 0.1 µM,> 15 µM,> 15 µM,0.026 µM,> 15 µM,> 15 µM,"CN(C)C(=O)c1cc2cnc(Nc3ccc(N4CCN(CCO)CC4)cn3)nc2n1C1CCCC1 [Example 26, 7-Cyclopentyl-2-{5-[4-(2-hydroxy-ethyl)-piperazin-1-yl]-pyridin-2-ylamino}-7H-pyrrolo[2,3-d]pyrimidine-6-carboxylic acid dimethylamide]"
0.01 to 0.1 µM,> 15 µM,> 15 µM,,,,"CN(C)C(=O)c1cc2cnc(Nc3ccc(N4CCN(C(=O)C5CC5)CC4)cn3)nc2n1C1CCCC1 [Example 27, 7-Cyclopentyl-2-[5-(4-cyclopropanecarbonyl-piperazin-1-yl)-pyridin-2-ylamino]-7H-pyrrolo[2,3-d]pyrimidine-6-carboxylic acid dimethylamide]"
0.1 to 1 µM,> 15 µM,> 15 µM,,,,"C[C@@H]1CN(c2ccc(Nc3ncc4cc(C(=O)N(C)C)n(C5CCCC5)c4n3)nc2)CCN1C(=O)OC(C)(C)C [Example 30, (R)-4-[6-(7-Cyclopentyl-6-dimethylcarbamoyl-7H-pyrrolo[2,3-d]pyrimidin-2-ylamino)-pyridin-3-yl]-2-methyl-piperazine-1-carboxylic acid tert-butyl ester]"
0.1 to 1 µM,> 15 µM,> 15 µM,,,,"C[C@H]1CN(c2ccc(Nc3ncc4cc(C(=O)N(C)C)n(C5CCCC5)c4n3)nc2)CCN1C(=O)OC(C)(C)C [Example 31, (S)-4-[6-(7-Cyclopentyl-6-dimethylcarbamoyl-7H-pyrrolo[2,3-d]pyrimidin-2-ylamino)-pyridin-3-yl]-2-methyl-piperazine-1-carboxylic acid tert-butyl ester]"
0.01 to 0.1 µM,> 15 µM,> 15 µM,,,,"CN(C)C(=O)c1cc2cnc(Nc3ccc(N4CC(O)C4)cn3)nc2n1C1CCCC1 [Example 32, 7-Cyclopentyl-2-[5-(3-hydroxy-azetidin-1-yl)-pyridin-2-ylamino]-7H-pyrrolo[2,3-d]pyrimidine-6-carboxylic acid dimethylamide]"
0.01 to 0.1 µM,> 15 µM,> 15 µM,,,,"CN(C)C(=O)c1cc2cnc(Nc3ccc(N4CCN(CCOCCO)CC4)cn3)nc2n1C1CCCC1 [Example 33, 7-Cyclopentyl-2-(5-{4-[2-(2-hydroxy-ethoxy)-ethyl]-piperazin-1-yl}-pyridin-2-ylamino)-7H-pyrrolo[2,3-d]pyrimidine-6-carboxylic acid dimethylamide]"
